The values below come from patent publication US20070254312A1, “Protein Kinase Inhibitors and Methods for Identiying Same” (priority 2004, published 2007).

Where two headings read alike, the source gives them in different places. Starred links: 1 amine or outer side, 2 acyl side, 3 side chain; linkers in the order of their positions; H or OH if unused. Non-standard residues stand in square brackets, D forms with d. Residues, ends and D or L forms follow the SMILES beside them. *: point of attachment. Benzoyl(4-(pyrrol-1-yl)) = O=C(c1ccc(-n2cccc2)cc1)*; Cysteamide = C(CS[*:3])N[*:1]; Dap = NC[C@H](N)C(=O)O

In test [1] the target is T1, PKCα (Homo sapiens, UniProt P17252). Put plainly: Protein Kinase Cα radioactive assay, peptide substrate Ac-Ser-Phe-Arg-Arg-Arg-NH2 (Example 1). The format is biochemical. The arrangement: purchased Pan Vera. The conditions noted are these: peptide substrate; read-out: PKCα inhibitory potency IC50. The procedure: Protein Kinase C Assay (general). The peptides […] (for PKC α, β and γ) and acetyl-[…] (for PKC ε and ζ) were used as substrates. […] Total reaction volume was 50 μL. […] Following an additional 5 min incubation at ambient temperature, 75 μL from each reaction well was transferred into each well of a Unifilter (P81 cellulose phosphate paper) assay plate and washed four times with 0.1% phosphoric acid in water. […] IC50 values were calculated using GraFit (Erithacus Software Limited) and Ki values were calculated using Enzyme Kinetics, SigmaPlot (SPSS Inc.) […] An analogous protocol was employed for peptide 4 versus variable [[…]]. […] An analogous protocol was employed for peptide 4 versus variable [ATP]. Protein Kinase Cα Assay (Ki determination for peptide 6 versus variable […] substrate). […] The reaction was initiated as described above. […] Following an additional 5 min incubation at ambient temperature, 75 μL from each reaction well was transferred into each well of a Unifilter (P81 cellulose phosphate paper) assay plate and washed four times with 0.1% phosphoric acid in water. […] IC50 values were calculated using GraFit (Erithacus Software Limited) and Ki values were calculated using Enzyme Kinetics, SigmaPlot (SPSS Inc.)

For test [2], the target named is PKC β1 (Homo sapiens, UniProt P05771). The following applies: cited from earlier work.
PKC β1, sequence (P05771 whole entry): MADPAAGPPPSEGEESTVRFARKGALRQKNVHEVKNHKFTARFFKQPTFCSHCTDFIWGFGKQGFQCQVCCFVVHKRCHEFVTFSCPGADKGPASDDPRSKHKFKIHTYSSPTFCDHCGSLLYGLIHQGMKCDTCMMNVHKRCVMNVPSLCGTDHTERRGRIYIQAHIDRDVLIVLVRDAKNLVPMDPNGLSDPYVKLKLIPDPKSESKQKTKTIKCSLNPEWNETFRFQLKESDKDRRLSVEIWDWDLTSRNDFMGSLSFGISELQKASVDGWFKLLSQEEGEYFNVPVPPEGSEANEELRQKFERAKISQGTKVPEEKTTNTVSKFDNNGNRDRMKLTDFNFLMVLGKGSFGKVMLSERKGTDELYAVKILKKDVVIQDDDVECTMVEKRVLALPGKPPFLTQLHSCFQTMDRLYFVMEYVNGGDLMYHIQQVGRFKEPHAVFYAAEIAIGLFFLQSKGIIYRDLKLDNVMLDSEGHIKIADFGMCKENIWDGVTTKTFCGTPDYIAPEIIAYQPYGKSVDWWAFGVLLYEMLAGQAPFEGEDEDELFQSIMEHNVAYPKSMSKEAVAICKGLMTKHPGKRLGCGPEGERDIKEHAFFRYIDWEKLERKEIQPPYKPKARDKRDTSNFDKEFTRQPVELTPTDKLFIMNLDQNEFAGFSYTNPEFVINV
Test [3] has as its target T1, PKCα. The following applies: cited from earlier work.
The target of test [4] is PKCδ (Homo sapiens, UniProt Q05655). Details: purchased Panvera. The conditions noted are these: literature values; relative to most potently inhibited isoform (=1); cited from earlier work.
PKCδ, sequence (Q05655 whole entry, canonical isoform): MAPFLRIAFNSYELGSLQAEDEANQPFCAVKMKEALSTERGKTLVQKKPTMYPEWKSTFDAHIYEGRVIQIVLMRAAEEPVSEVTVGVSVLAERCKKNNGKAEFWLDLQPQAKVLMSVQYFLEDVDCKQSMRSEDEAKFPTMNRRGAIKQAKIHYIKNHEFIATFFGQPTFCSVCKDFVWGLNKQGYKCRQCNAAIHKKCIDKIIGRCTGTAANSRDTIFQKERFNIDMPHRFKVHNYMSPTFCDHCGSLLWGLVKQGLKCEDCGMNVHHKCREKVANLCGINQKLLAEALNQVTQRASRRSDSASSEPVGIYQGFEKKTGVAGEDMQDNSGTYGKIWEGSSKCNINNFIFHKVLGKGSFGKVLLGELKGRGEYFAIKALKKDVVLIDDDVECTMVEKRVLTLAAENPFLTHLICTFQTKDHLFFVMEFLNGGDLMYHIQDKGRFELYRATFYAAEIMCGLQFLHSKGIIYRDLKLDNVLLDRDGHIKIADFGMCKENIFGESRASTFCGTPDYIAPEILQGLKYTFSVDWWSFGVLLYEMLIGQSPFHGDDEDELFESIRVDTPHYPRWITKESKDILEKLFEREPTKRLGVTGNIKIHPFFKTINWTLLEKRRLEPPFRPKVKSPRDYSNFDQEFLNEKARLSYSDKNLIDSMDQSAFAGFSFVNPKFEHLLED
The target in test [5] is T2, PKCζ (Homo sapiens, UniProt Q05513).
T2 sequence (Q05513 1-592): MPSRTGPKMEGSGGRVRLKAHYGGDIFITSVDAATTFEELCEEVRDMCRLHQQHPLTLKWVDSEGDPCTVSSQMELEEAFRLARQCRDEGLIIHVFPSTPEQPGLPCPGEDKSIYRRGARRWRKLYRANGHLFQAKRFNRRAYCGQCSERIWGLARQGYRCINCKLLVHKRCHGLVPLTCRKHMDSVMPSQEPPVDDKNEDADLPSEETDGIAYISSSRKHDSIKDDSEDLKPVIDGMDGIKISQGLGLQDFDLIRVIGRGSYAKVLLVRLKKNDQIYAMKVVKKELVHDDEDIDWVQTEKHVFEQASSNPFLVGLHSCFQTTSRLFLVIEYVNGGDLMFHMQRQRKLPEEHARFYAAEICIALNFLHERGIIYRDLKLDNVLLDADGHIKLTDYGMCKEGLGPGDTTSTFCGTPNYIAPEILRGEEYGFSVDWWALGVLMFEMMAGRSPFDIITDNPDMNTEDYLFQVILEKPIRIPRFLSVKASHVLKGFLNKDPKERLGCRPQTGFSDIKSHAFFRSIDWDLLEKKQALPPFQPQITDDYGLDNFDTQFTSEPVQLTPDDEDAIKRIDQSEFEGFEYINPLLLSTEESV
The arrangement: purchased Panvera. The conditions noted are these: cited from earlier work.

For test [6], the target named is T3, PKCε (Homo sapiens, UniProt Q02156).
T3 sequence (Q02156 1-737): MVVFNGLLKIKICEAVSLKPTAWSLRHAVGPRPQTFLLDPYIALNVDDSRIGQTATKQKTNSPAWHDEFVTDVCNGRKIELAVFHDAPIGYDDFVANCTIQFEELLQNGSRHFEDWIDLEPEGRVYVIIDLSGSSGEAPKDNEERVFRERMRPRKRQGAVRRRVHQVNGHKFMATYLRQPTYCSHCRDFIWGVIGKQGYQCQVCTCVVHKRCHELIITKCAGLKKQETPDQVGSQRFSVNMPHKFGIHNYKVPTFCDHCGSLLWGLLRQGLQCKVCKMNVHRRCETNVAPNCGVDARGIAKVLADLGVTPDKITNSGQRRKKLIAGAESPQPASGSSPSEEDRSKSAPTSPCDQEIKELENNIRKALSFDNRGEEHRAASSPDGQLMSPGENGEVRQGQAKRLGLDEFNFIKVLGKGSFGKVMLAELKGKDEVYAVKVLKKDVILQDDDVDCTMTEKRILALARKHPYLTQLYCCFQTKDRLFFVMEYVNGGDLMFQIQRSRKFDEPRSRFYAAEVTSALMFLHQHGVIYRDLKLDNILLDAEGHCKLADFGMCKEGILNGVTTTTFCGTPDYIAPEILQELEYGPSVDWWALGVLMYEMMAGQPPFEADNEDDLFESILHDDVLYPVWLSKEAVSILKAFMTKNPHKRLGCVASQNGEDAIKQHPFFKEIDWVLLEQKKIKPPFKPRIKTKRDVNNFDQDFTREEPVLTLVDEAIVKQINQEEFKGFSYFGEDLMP
The arrangement: purchased Panvera. The conditions noted are these: cited from earlier work.

For test [7], the target named is PKCγ (Homo sapiens, UniProt P05129). Details: purchased Panvera. The following applies: cited from earlier work.
The target in test [8] is PKCη (Homo sapiens, UniProt P24723). The arrangement: purchased Panvera. The conditions noted are these: cited from earlier work.
PKCη, sequence (P24723 whole entry): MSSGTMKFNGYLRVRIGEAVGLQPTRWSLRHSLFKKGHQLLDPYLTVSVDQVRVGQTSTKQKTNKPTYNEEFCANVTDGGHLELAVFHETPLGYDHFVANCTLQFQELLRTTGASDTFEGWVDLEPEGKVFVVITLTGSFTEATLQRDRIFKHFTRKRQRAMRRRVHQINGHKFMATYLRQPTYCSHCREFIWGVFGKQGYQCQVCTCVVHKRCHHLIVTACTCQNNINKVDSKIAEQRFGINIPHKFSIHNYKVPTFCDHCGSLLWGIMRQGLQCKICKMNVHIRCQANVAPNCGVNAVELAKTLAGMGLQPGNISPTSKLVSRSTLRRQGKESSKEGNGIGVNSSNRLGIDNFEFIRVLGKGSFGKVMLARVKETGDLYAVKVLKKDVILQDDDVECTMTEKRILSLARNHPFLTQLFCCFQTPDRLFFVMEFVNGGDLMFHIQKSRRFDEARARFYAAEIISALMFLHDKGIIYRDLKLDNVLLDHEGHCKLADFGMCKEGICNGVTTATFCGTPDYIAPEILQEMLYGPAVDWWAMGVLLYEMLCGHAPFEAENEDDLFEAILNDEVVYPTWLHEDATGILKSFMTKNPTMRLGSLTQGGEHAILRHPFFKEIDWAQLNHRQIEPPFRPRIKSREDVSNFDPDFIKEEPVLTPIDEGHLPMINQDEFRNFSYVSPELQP

By IC50 is commonly meant the point on the concentration scale where inhibition reaches its midpoint. As for `CC(=O)N[C@@H](C)C(=O)N[C@@H](CCCNC(=N)N)C(=O)N[C@@H](CCCNC(=N)N)C(=O)NCC(=O)N[C@@H](CNC(=O)c1ccc(-n2cccc2)cc1)C(=O)N[C@@H](CC(C)C)C(=O)N[C@@H](CCCNC(=N)N)C(=O)N[C@@H](CCC(N)=O)C(=O)N[C@@H](C)C(=O)NCCS` [Compound 2] (Ac-ARRG[Dap](Benzoyl(4-(pyrrol-1-yl)))LRQA-Cysteamide), the IC50 in test [1] came out at 5.7 ± 0.4 µM.
For the molecule `CC(=O)c1c(O)c(C)c(O)c(Cc2c(O)c3c(c(C(=O)/C=C/c4ccccc4)c2O)OC(C)(C)C=C3)c1O` [Rottlerin, rottlerin], the “Fold selectivity (IC50), PKC β1” value is 14 fold in test [2] and 10 fold in test [2] (listed as rottlerin). For the same molecule, in test [3], the “Fold selectivity (IC50), PKC α” value is reported as 10 fold. Moreover, the “Fold selectivity (IC50), PKC δ” value in test [4] is given as 1 fold. Also, the “Fold selectivity (IC50), PKC ζ” value in test [5] is 33 fold. Also, in test [6], the “Fold selectivity (IC50), PKC ε” value is reported as 33 fold. Besides, the “Fold selectivity (IC50), PKC γ” value in test [7] is 13 fold. Besides, in test [8], the “Fold selectivity (IC50), PKC η” value was 27 fold.
